Results on 7 compounds are retold here after patent US10035766B2, “Compositions for preventing and/or treating lysosomal storage disorders” (Amicus Therapeutics, Inc., priority 2009, dated 2018).

Molecules are shown by their SMILES. Positions count from the first letter of the chain named. Counter-ions that a name gives are not always drawn. Like-named read-outs stand apart in the source and are kept apart here.

One assay deals with T1, GCase (Homo sapiens, UniProt P04062).
T1 sequence (P04062 40-536): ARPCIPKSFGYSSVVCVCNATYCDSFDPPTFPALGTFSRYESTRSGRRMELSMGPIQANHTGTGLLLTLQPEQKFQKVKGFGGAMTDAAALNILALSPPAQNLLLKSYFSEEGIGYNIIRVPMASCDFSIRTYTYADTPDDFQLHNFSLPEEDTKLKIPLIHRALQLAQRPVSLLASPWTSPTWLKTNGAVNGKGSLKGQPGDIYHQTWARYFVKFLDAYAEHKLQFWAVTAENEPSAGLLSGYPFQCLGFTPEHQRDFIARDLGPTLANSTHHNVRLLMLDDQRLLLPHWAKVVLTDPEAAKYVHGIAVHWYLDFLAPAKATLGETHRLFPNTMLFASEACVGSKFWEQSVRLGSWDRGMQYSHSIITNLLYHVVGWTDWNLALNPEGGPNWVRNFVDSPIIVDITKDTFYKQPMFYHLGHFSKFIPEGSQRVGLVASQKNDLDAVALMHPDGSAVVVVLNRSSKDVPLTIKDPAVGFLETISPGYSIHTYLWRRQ
The assay can be described thus: GCase activity enhancement (EC50, Emax) of Table 2B. The format is cell-based.

A further assay addresses T2, lysosomal GCase (Homo sapiens, UniProt P04062).
T2 construct: fibroblasts established from a normal subject; endogenous in cells; host or cells: fibroblasts established from a normal subject
T2 sequence (P04062 40-536): T1 sequence (P04062 40-536)
Description: In situ lysosomal GCase inhibition and washout in fibroblasts from a normal subject (PFBFDβGlu substrate). In kind it is cell-based. Conditions: for in situ washout: after 16-24 hours at IC90, single exponential fit of activity recovery over 8 hours; for IC50: fibroblasts, compound 16-24 hours, substrate 1 hour. On the procedure:
The effect of the novel compounds of the present invention on lysosomal GCase activity was assayed in situ using fibroblasts established from a normal subject. Cells seeded in 48-well plates were incubated with the indicated concentrations of compound for 16-24 hours. For the dose-response assays, cells were incubated with the in situ substrate 5-(pentafluorobenzoylamino)fluorescein di-β-D-glucopyranoside (PFBFDβGlu) for 1 hour and subsequently lysed to determine the extent of substrate hydrolysis in the presence of compound. […] Inhibition was determined as the ratio of activity in the presence of compound to that in the absence of compound. […] Cells were washed extensively and incubated in drug-free medium to allow net compound efflux from cells. Cells were then tested for lysosomal GCase activity at 2 hour intervals over a total period of 8 hours following compound removal. The increase in activity over time was fitted with a single exponential function to determine the compound's washout time.

Assay [1] has as its target T3, recombinant human GCase (rhGCase; Cerezyme®) (Homo sapiens, UniProt P04062, R534H).
T3 construct: purchased Genzyme Corp
T3 sequence (P04062 40-536 R534H): T1 sequence (P04062 40-536) with R495H
The assay can be described thus: In vitro enzyme inhibition assay (4-MU-β-D-Glc hydrolysis) for IC50 and Ki. In kind it is biochemical. Conditions: for Ki: Cheng-Prusoff from IC50. On the procedure: The binding affinity (defined here by Ki binding constant) of GCase for novel compounds of the present invention were empirically determined using enzyme inhibition assays. In brief, the enzyme inhibition assays used monitored the ability of a test compound to bind and prevent the hydrolysis of a fluorogenic substrate in a concentration-dependent manner. Specifically, the enzyme activity of recombinant human GCase (rhGCase; Cerezyme®, Genzyme Corp.) was measured using the 4-methylumbelliferyl-β-D-glucopyranoside (4-MU-β-D-Glc) fluorogenic substrate in the absence or in the presence of varying amounts of each test compound. […] The enzyme inhibition assays were performed at both pH 7.0 (endoplasmic reticulum pH) and at pH 5.2 (lysosomal pH) to gain insight into the binding affinity (i.e., potency) of compounds for GCase in the endoplasmic reticulum and lysososome.
Various concentrations of test compounds were prepared in buffer “M” consisting of 50 mM sodium phosphate buffer with 0.25% sodium taurocholate at pH 7.0 and pH 5.2. Enzyme (Cerezyme®, a recombinant form of the human enzyme β-glucocerebrosidase) was also diluted in the same buffer “M” at pH 7.0 and pH 5.2. […] Five microliters of diluted enzyme was added to 15 μl of the various inhibitor concentrations or buffer “M” alone and incubated at 37° C. for 1 hour with 50 μl of the substrate preparation to assess β-glucosidase activity at pH 7.0 and pH 5.2. […] Fluorescence was measured on a plate reader for 1 sec/well using 355 nm excitation and 460 nm emission.

The mark [2] stands for this setting: pH 5.2 (lysosomal pH), read-out: Ki (μM) pH 5.2.
The mark [3] stands for this setting: pH 5.2 (lysosomal pH), read-out: IC50 (μM) pH 5.2.
The mark [4] stands for this setting: pH 7.0 (endoplasmic reticulum pH), read-out: Ki (μM) pH 7.0.
Setting [5] is: pH 7.0 (endoplasmic reticulum pH), read-out: IC50 (μM) pH 7.0.

With `C[C@H](F)[C@H]1CNC[C@@H](O)[C@@H]1O` [Compound 13, (3R,4R,5R)-5((S)-1-Fluoroethyl)piperdine 3,4-diol Hydrochloride], the EC50 on GCase stood at 44 ± 5 nM. At GCase, the Emax was determined as 92.8 ± 6.6%. Also, the “in situ washout” value at lysosomal GCase was determined as 2.7 ± 0.12 h. For the same compound, the IC50 came to 650 ± 172 nM against lysosomal GCase, 0.0946 ± 0.0028 µM in assay [1] (setting [3]) and 0.0171 ± 0.0008 µM in assay [1] (setting [5]). Further, the results for the Ki in assay [1] (setting [2]) and in assay [1] (setting [4]) were 0.0498 ± 0.0015 µM and 0.009 ± 0.0004 µM, respectively.

As for `O[C@@H]1[C@@H]([C@H](O)c2ccccc2)CNC[C@H]1O` [(3R,4R,5R)-5-((S)-hydroxy(phenyl)methyl)-piperidine-3,4-diol], the Emax on GCase was 72.1 ± 3.5%.

As to `CC(C)(O)[C@H]1CNC[C@@H](O)[C@@H]1O` [(3R,4R,5S)-5-(2-hydroxypropan-2-yl)piperidine-3,4-diol], on GCase, the Emax is 109 ± 3.6%.

Take `CC(O)C1CNCC(O)C1O` (single isomer, unassigned) [Compound 10]: the Emax at GCase worked out at 99.3 ± 4.9%. For the same compound, the “in situ washout” value at lysosomal GCase stood at 12 ± 1.65 h.

As for `C[C@@H](F)[C@H]1CNC[C@@H](O)[C@@H]1O` [Compound 14, (3R,4R,5R)-5((R)-(1-Fluoroethyl)piperdine 3,4-diol Hydrochloride], the EC50 on GCase was 26 ± 3 nM. Moreover, at GCase, the maximum response (Emax) was 89.7 ± 3.5%. Moreover, the “in situ washout” value on lysosomal GCase was found to be 3.7 ± 0.63 h. Besides, the values for the IC50 (at lysosomal GCase; in assay [1] (setting [3]); in assay [1] (setting [5])) were 61 ± 19 nM, 0.038 ± 0.0016 µM and 0.007 ± 0.0003 µM, respectively. The Ki in assay [1] (setting [2]) was 0.016 ± 0.0007 µM; in assay [1] (setting [4]) it was 0.004 ± 0.0001 µM.

On to `C[C@@H](O)[C@H]1CNC[C@@H](O)[C@@H]1O` [Compound 9, (3R,4R,5R)-5((R)-1-Hydroxyethyl)piperdine 3,4-diol], for which the EC50 on GCase is 490 ± 60 nM. Besides, the “Emax (%)” value on GCase is on record as 83.7 ± 2.9%. Further, on lysosomal GCase, the “in situ washout” value worked out at 10.5 ± 1.75 h. Moreover, the results for the IC50 (at lysosomal GCase; in assay [1] (setting [3]); in assay [1] (setting [5])) were 518 ± 22 nM, 0.107 ± 0.0041 µM and 0.02 ± 0.0008 µM, respectively. Further, the Ki was determined as 0.044 ± 0.0017 µM in assay [1] (setting [2]) and 0.01 ± 0.0004 µM in assay [1] (setting [4]).

Consider `CC(O)[C@H]1CNC[C@@H](O)[C@@H]1O` (single isomer, unassigned), for which, at GCase (same maximum level as IFG-tartrate at much lower concentration), the “GCase activity enhancement compared to reference compound IFG-tartrate” value was “concentration-dependent increase in GCase activity”. The “inhibition of GCase activity” value against lysosomal GCase is reported as “inhibited GCase activity”.

The EC50 is the concentration giving half of the maximal effect. The term Emax denotes the size of the effect at its maximum, as opposed to the concentration needed. The term IC50 denotes the midpoint of a concentration-inhibition curve. One may read the Ki as a measure of affinity in units of concentration, obtained from inhibition or displacement.
